Some test systems named below: RPMI-8226 leukemia; RXF 393 renal; BT-549 breast; 786-0 renal; SF-295 CNS; U251 CNS; COLO 205 colon; UO-31 renal; KM12 colon; SNB-19 CNS.
What all share (test): NCI tumour cell line growth inhibition, 48 h

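Where inhibition never reached the appropriate level, the endpoint shown equals the highest concentration tested. Otherwise, values were interpolated linearly from a five-concentration, 48-hour dose response in 96-well plates. GI50 marks 50% less growth. At the TGI there is no net growth.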

On to `Cc1sc2ncn(Cc3ccc(Cl)c(Cl)c3)c(=O)c2c1C`, for which the GI50 in the assay with RPMI-8226 leukemia is 12.2 µM; in the assay with RXF 393 renal it was above 100 µM; in the assay with BT-549 breast, 58.9 µM; with 786-0 renal it was 34.2 µM; in the assay with SF-295 CNS, 3.85 µM; in the assay on U251 CNS, 27.6 µM. Moreover, the GI50 with COLO 205 colon is 63.2 µM; in the assay on UO-31 renal, 31.4 µM; in the assay on KM12 colon it was 2.44 µM; in the assay on SNB-19 CNS, 38 µM. In addition, the TGI with RPMI-8226 leukemia is above 100 µM; in the assay with RXF 393 renal, above 100 µM; with BT-549 breast, above 100 µM; with 786-0 renal it was above 100 µM; in the assay on SF-295 CNS it was 22.7 µM; in the assay with U251 CNS, above 100 µM. Moreover, the TGI is above 100 µM in the assay with COLO 205 colon, above 100 µM in the assay on UO-31 renal, 11.7 µM in the assay on KM12 colon and above 100 µM with SNB-19 CNS.

On to `CC(C)(C)C(=O)OCc1nc2cc3c(cc2c(=O)[nH]1)CCC3=O`, for which the GI50 in the assay on RPMI-8226 leukemia, with RXF 393 renal, in the assay on BT-549 breast, in the assay with 786-0 renal, with SF-295 CNS and in the assay on U251 CNS was above 100 µM in each case. Also, the GI50 in the assay on COLO 205 colon, in the assay on UO-31 renal, in the assay with KM12 colon and in the assay with SNB-19 CNS was above 100 µM each time. Further, the TGI in the assay with RPMI-8226 leukemia, in the assay with RXF 393 renal, in the assay on BT-549 breast, in the assay with 786-0 renal, in the assay on SF-295 CNS and with U251 CNS was above 100 µM each time. Also, the TGI in the assay on COLO 205 colon, with UO-31 renal, in the assay with KM12 colon and in the assay on SNB-19 CNS was above 100 µM throughout.

As to `N=C(N)SCCc1ccccn1`, the TGI in the assay with RPMI-8226 leukemia, with RXF 393 renal, in the assay with BT-549 breast, in the assay on 786-0 renal, in the assay on SF-295 CNS and in the assay on U251 CNS was above 100 µM throughout. The TGI in the assay with COLO 205 colon, with UO-31 renal, in the assay with KM12 colon and in the assay with SNB-19 CNS was above 100 µM each time.

Turning to `CCOC(=O)/C(C#N)=C/Nc1ccc(-c2nc3ccccc3[nH]2)cc1`, the GI50 with RPMI-8226 leukemia is 19.7 µM; in the assay on RXF 393 renal, 76.7 µM; in the assay on BT-549 breast, 34.1 µM; in the assay on 786-0 renal, 27.2 µM; in the assay on SF-295 CNS, 27.4 µM; in the assay with U251 CNS, 23.2 µM. Further, the GI50 in the assay on COLO 205 colon was 28.8 µM; in the assay with UO-31 renal, 21.1 µM; in the assay on KM12 colon it was 16.1 µM; in the assay on SNB-19 CNS it was 36.5 µM. For the same compound, the TGI with RPMI-8226 leukemia was above 100 µM; in the assay with RXF 393 renal, above 100 µM; in the assay with BT-549 breast, 85.5 µM; in the assay with 786-0 renal it was 64.7 µM; with SF-295 CNS it was 76.8 µM; with U251 CNS it was 65.9 µM. In addition, the TGI in the assay on COLO 205 colon was above 100 µM; in the assay with UO-31 renal it was above 100 µM; in the assay with KM12 colon, 44.1 µM; in the assay on SNB-19 CNS it was above 100 µM.

Consider `CCOc1cc(C(C)(C)C)ccc1C1=N[C@@](C)(c2ccc(Cl)cc2)[C@@](C)(c2ccc(Cl)cc2)N1C(=O)N1CCN(CCS(C)(=O)=O)CC1`, for which the GI50 in the assay with RPMI-8226 leukemia was 2.49 µM; in the assay on RXF 393 renal, 1.76 µM; in the assay on BT-549 breast, 3.24 µM; with 786-0 renal, 4 µM; in the assay on SF-295 CNS it was 3.15 µM; with U251 CNS, 2.89 µM. For the same compound, the GI50 was 2.03 µM with COLO 205 colon, 0.361 µM with UO-31 renal, 3.33 µM in the assay with KM12 colon and 4.4 µM in the assay with SNB-19 CNS. In addition, the TGI in the assay on RPMI-8226 leukemia came to 6.77 µM; with RXF 393 renal, 3.74 µM; with BT-549 breast it was 10 µM; with 786-0 renal, 14.5 µM; in the assay on SF-295 CNS, 10.5 µM; in the assay on U251 CNS it was 8.52 µM. Further, the TGI in the assay on COLO 205 colon is 4.01 µM; in the assay on UO-31 renal, 1.63 µM; in the assay on KM12 colon, 11.4 µM; in the assay with SNB-19 CNS, 23.2 µM.

In the case of `CCCCCCNC(=O)Oc1ccc(/C(=C(\C)c2ccccc2)c2ccc(OCCN(CC)CC)cc2)cc1`, the GI50 is 2.32 µM in the assay with RPMI-8226 leukemia; 2.35 µM in the assay on RXF 393 renal; 6.05 µM in the assay on BT-549 breast; 1.5 µM with 786-0 renal; 2.11 µM with SF-295 CNS; 2.41 µM with U251 CNS. Also, the GI50 in the assay with COLO 205 colon was 1.17 µM; in the assay on UO-31 renal it was 1.51 µM; in the assay with KM12 colon, 2.84 µM; in the assay on SNB-19 CNS it was 4.89 µM. For the same compound, the TGI in the assay on RPMI-8226 leukemia was 9.71 µM; in the assay on RXF 393 renal it was 8.16 µM; in the assay with BT-549 breast, 12.5 µM; with 786-0 renal it was 5.33 µM; in the assay on SF-295 CNS it was 7.38 µM; in the assay on U251 CNS it was 8.15 µM. In addition, the TGI in the assay on COLO 205 colon amounted to 2.49 µM; with UO-31 renal it was 6.09 µM; with KM12 colon, 10 µM; with SNB-19 CNS, 11.1 µM.

Take `COc1cc(C2c3cc4c(cc3[C@@H](Nc3ccc(N)cc3)C3COC(=O)[C@H]23)OCO4)cc(OC)c1O` (stereo not given in full): the TGI with RPMI-8226 leukemia worked out at 12 µM; in the assay with RXF 393 renal, 13.2 µM; with BT-549 breast, 8.5 µM; in the assay with 786-0 renal, 4.43 µM; in the assay with SF-295 CNS, 4.76 µM; in the assay on U251 CNS, 4.2 µM. The TGI in the assay with COLO 205 colon stood at 47.7 µM; in the assay on UO-31 renal it was 4.79 µM; with KM12 colon, 14.3 µM; with SNB-19 CNS it was 17.3 µM. Further, the GI50 with 786-0 renal was 0.514 µM; in the assay with SF-295 CNS it was 0.502 µM; in the assay on COLO 205 colon, 0.996 µM; in the assay on UO-31 renal it was 0.727 µM; with SNB-19 CNS it was 0.555 µM.

Consider `c1ccc2nc(OCCN3CC3)ccc2c1`, for which the GI50 in the assay on RPMI-8226 leukemia is 3.94 µM; in the assay on RXF 393 renal, 14.6 µM; with BT-549 breast it was 20.7 µM; with 786-0 renal, 14.3 µM; in the assay with SF-295 CNS, 11.6 µM; in the assay with U251 CNS it was 5.2 µM. Moreover, the GI50 is 1.98 µM with COLO 205 colon, 6.39 µM in the assay on UO-31 renal, 4.37 µM with KM12 colon and 15.7 µM with SNB-19 CNS. The TGI turned out to be 26.7 µM with RPMI-8226 leukemia; 32.5 µM with RXF 393 renal; 37.7 µM in the assay on BT-549 breast; 37.3 µM in the assay with 786-0 renal; 35.4 µM in the assay on SF-295 CNS; 18.9 µM in the assay on U251 CNS. Moreover, the TGI with COLO 205 colon was determined as 5 µM; in the assay with UO-31 renal it was 25 µM; in the assay with KM12 colon, 16.5 µM; in the assay on SNB-19 CNS it was 43.6 µM.
